In US20130324725A1, “AMINOPYRIMIDINES USEFUL AS KINASE INHIBITORS” (VERTEX PHARMACEUTICALS INCORPORATED, priority 2007, published 2013):
Read-outs that look alike come from different tables or passages of the source.

Experiments:
Colo205 cells = assay: Analysis of cell proliferation and viability; type: cell-based; conditions: Homo sapiens
Experimental: Compounds were screened for their ability to inhibit cell proliferation and their effects on cell viability using Colo205 cells obtained from ECACC and using the assay shown below.
Colo205 cells were seeded in 96 well plates and serially diluted compound was added to the wells in duplicate. Control groups included untreated cells, the compound diluent (0.1% DMSO alone) and culture medium without cells. The cells were then incubated for 72 or 96 hrs at 37 C in an atmosphere of 5% CO2/95% humidity.
To measure proliferation, 3 h prior to the end of the experiment 0.5 μCi of 3H thymidine was added to each well. Cells were then harvested and the incorporated radioactivity counted on a Wallac microplate beta-counter. Cell viability was assessed using Promega CellTiter 96AQ to measure MTS conversion. Dose response curves were calculated using either Prism 3.0 (GraphPad) or SoftMax Pro 4.3.1 LS (Molecular Devices) software.

[1] = biological target: T1, T315I mutant of human Abl (Homo sapiens, UniProt P00519, T315I); assay: Mutant Abl kinase (T315I) activity inhibition assay; type: biochemical; conditions: at Upstate Cell Signaling Solutions
T1 construct: purchased Upstate Cell Signaling Solutions (Dundee, UK), assay run at the vendor
Experimental: Compounds were screened for their ability to inhibit the T315I mutant form of human Abl at Upstate Cell Signaling Solutions (Dundee, UK). In a final reaction volume of 25 μl, the T315I mutant of human Abl (5-10 mU) was incubated with 8 mM MOPS pH 7.0, 0.2 mM EDTA, 50 μM EAIYAAPFAKKK, 10 mM Mg Acetate, [γ-^33P-ATP](specific activity approx. 500 cpm/pmol, […] final assay concentration) and the test compound of interest at final concentrations over the range […]. The reaction was initiated by the addition of the MgATP mix. After incubation for 40 minutes at room temperature, the reaction was stopped by the addition of 5 μl of a 3% phosphoric acid solution. 10 μl of the reaction was then spotted onto a P30 filtermat and washed three times for 5 minutes in 75 mM phosphoric acid and once in methanol prior to drying and scintillation counting. […]

Aurora-1 (Aurora B) = Aurora-1 (Aurora B) (Homo sapiens, UniProt Q96GD4); assay: Aurora-1 (Aurora B) inhibition assay (radiometric); type: biochemical; conditions: 800 μM ATP, 25° C.; read-out: Ki, Aurora-1 (Aurora B) radiometric assay (sentence prints Aurora A)
Chain of Aurora-1 (Aurora B) (Q96GD4 whole entry): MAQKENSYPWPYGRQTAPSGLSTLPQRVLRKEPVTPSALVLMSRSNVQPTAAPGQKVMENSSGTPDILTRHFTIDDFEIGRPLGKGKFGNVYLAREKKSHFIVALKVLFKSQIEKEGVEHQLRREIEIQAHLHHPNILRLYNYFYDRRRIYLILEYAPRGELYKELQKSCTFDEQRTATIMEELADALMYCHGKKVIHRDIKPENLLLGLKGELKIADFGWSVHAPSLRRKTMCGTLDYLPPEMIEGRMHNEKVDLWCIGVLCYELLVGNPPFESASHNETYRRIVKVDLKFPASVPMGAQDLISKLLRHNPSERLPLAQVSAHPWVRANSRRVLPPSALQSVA
Experimental: An assay buffer solution was prepared which consisted of 25 mM HEPES (pH 7.5), 10 mM MgCl2, 0.1% BSA and 10% glycerol. A 22 nM Aurora-B solution, also containing 1.7 mM DTT and 1.5 mM Kemptide (LRRASLG), was prepared in assay buffer. To 22 μL of the Aurora-B solution, in a 96-well plate, was added 2 μl of a compound stock solution in DMSO and the mixture allowed to equilibrate for 10 minutes at 25° C. The enzyme reaction was initiated by the addition of 16 μl stock [γ-^33P]-ATP solution ([…]) prepared in assay buffer, to a final assay concentration of 800 μM. The reaction was stopped after 3 hours by the addition of 16 μL 500 mM phosphoric acid and the levels of ^33P incorporation into the peptide substrate were determined by the following method.
A phosphocellulose 96-well plate (Millipore, Cat no. MAPHNOB50) was pre-treated with 100 μL of a 100 mM phosphoric acid prior to the addition of the enzyme reaction mixture (40 μL). […] Levels of non-enzyme catalyzed background radioactivity were determined by adding 16 μL of the 500 mM phosphoric acid to control wells, containing all assay components (which acts to denature the enzyme), prior to the addition of the [γ-^33P]-ATP solution. Levels of enzyme catalyzed ^33P incorporation were calculated by subtracting mean background counts from those measured at each inhibitor concentration. […]

Aurora-2 (Aurora A) = biological target: T2, Aurora-2 (Aurora A) (Homo sapiens, UniProt O14965); assay: Aurora-2 (Aurora A) inhibition assay, coupled enzyme; type: biochemical; conditions: 400 μM ATP, 30° C.
T2 sequence (O14965 1-403): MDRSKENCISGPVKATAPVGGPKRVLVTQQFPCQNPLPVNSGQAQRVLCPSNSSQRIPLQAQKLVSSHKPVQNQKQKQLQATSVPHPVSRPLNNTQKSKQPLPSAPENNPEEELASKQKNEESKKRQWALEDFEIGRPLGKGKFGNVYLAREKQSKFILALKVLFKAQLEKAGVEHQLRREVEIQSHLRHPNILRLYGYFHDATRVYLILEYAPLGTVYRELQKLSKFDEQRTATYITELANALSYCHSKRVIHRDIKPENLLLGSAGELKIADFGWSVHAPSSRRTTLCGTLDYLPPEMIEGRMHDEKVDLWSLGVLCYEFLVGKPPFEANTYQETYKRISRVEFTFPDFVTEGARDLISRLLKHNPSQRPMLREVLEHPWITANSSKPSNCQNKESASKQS
Experimental: Compounds were screened for their ability to inhibit Aurora-2 using a standard coupled enzyme assay (Fox et al., Protein Sci., (1998) 7, 2249). Assays were carried out in a mixture of 100 mM Hepes (pH7.5), 10 mM MgCl2, 1 mM DTT, 25 mM NaCl, 2.5 mM phosphoenolpyruvate, 300 μM NADH, 30 μg/ml pyruvate kinase and 10 μg/ml lactate dehydrogenase. Final substrate concentrations in the assay were 400 μM ATP (Sigma Chemicals) and 570 μM peptide (Kemptide, American Peptide, Sunnyvale, Calif.). Assays were carried out at 30° C. and in the presence of 40 nM Aurora-2.
An assay stock buffer solution was prepared containing all of the reagents listed above, with the exception of Aurora-2 and the test compound of interest. 55 μl of the stock solution was placed in a 96 well plate followed by addition of 2 μl of DMSO stock containing serial dilutions of the test compound (typically starting from a final concentration of 7.5 μM). The plate was preincubated for 10 minutes at 30° C. and the reaction initiated by addition of 10 μl of Aurora-2. Initial reaction rates were determined with a Molecular Devices SpectraMax Plus plate reader over a 10 minute time course. IC50 and Ki data were calculated from non-linear regression analysis using the Prism software package (GraphPad Prism version 3.0cx for Macintosh, GraphPad Software, San Diego Calif., USA).

[2] = COLO 205, 72 hours, read-out: IC50 values after 72 hours
[3] = COLO 205, 96 hours, read-out: IC50 values after 96 hours

Row | Structure (SMILES) | IC50 (Colo205 cells; [2]) | also measured
1 | Cc1cc(Nc2cc(N3CCN(C4CC4)CC3)nc(Sc3ccc4nc(CC(F)(F)F)n(C)c4c3)n2)[nH]n1 [Compound I-5] | < 50 nM | 
2 | Cc1cc(Nc2cc(N3CCN(C4CCCCC4)CC3)nc(Sc3cc(F)c4nc(C)ccc4c3)n2)[nH]n1 [Compound I-1] | 50 to 100 nM | 
3 | Cc1cc(Nc2cc(N3CCN(C4CCN(C)CC4)CC3)nc(Sc3ccc4nc(C(F)(F)F)ccc4c3)n2)[nH]n1 [Compound I-17] | 50 to 100 nM | Ki [1]: < 25 nM
4 | Cc1cc(Nc2cc(N3CCN(C4CCCCC4)CC3)nc(Sc3ccc4c(c3)CN(CC(F)(F)F)C4=O)n2)[nH]n1 [Compound I-25] | < 50 nM | 
5 | Cc1cc(Nc2cc(N3CCN(C4CCN(C)CC4)CC3)nc(Sc3cc(F)c4nc(C)ccc4c3)n2)[nH]n1 [Compound I-13, 2-(8-fluoro-2-methylquinolin-6-ylthio)-N-(3-methyl-1H-pyrazol-5-yl)-6-(4-(1-methylpiperidin-4-yl)piperazin-1-yl)pyrimidin-4-amine] | < 50 nM | 
6 | Cc1cc(Nc2cc(N3CCN(C4CCCCC4)CC3)nc(Sc3ccc4nc(CC(F)(F)F)n(C)c4c3)n2)[nH]n1 [Compound I-19] | < 50 nM | 
7 | Cc1cc(Nc2cc(N3CCN(C(C)(C)C)CC3)nc(Sc3ccc4c(cnn4C)c3)n2)[nH]n1 [Compound I-16] |  | IC50 (Colo205 cells; [3]): < 50 nM
8 | Cc1cc(Nc2cc(N3CCN(C4CCCCC4)CC3)nc(Sc3ccc4nc(C(F)(F)F)[nH]c4c3)n2)[nH]n1 [Compound I-8] | < 50 nM | 
9 | Cc1cc(Nc2cc(N3CCN(C(C)(C)C)CC3)nc(Sc3ccc4ncn(C)c4c3)n2)[nH]n1 [Compound I-18] |  | IC50 (Colo205 cells; [3]): < 50 nM
10 | Cc1cc(Nc2cc(N3CCN(C4CC4)CC3)nc(Sc3ccc4c(c3)CN(CC(F)(F)F)C4=O)n2)[nH]n1 [Compound I-20] | < 50 nM | 
11 | Cc1cc(Nc2cc(N3CCN(C4CCN(C)CC4)CC3)nc(Sc3ccc4nc(C(F)(F)F)n(C)c4c3)n2)[nH]n1 [Compound I-12] | < 50 nM | 
12 | Cc1cc(Nc2cc(N3CCN(C4CCCCC4)CC3)nc(Sc3ccc4nc(C(F)(F)F)n(C)c4c3)n2)[nH]n1 [Compound I-3] | < 50 nM | IC50 (Colo205 cells; [3]): < 50 nM
13 | Cc1cc(Nc2cc(N3CCN(C4CC4)CC3)nc(Sc3ccc4nc(C(F)(F)F)n(C)c4c3)n2)[nH]n1 [Compound I-10] | 50 to 100 nM | IC50 (Colo205 cells; [3]): < 50 nM
14 | Cc1cc(Nc2cc(N3CCN(CC(F)(F)F)CC3)nc(Sc3ccc4c(c3)CN(CC(F)(F)F)C4=O)n2)[nH]n1 [Compound I-24] | 50 to 100 nM | 
15 | Cc1cc(Nc2cc(N3CCN(C(C)(C)CF)CC3)nc(Sc3ccc4c(c3)CN(CC(F)(F)F)C4=O)n2)[nH]n1 [Compound I-2] | 50 to 100 nM | 
16 | Cc1cc(Nc2cc(N3CCN(CC(F)(F)F)CC3)nc(Sc3ccc4nc(C(F)(F)F)[nH]c4c3)n2)[nH]n1 [Compound I-9] |  | Ki (Aurora-1 (Aurora B)): 20 to 50 nM; Ki (Aurora-2 (Aurora A)): ≤ 1 nM
17 | Cc1cc(Nc2cc(N3CCN(C4CC4)CC3)nc(Sc3ccc4nc(C(F)(F)F)[nH]c4c3)n2)[nH]n1 [Compound I-4] | 50 to 100 nM | 
18 | Cc1cc(Nc2cc(N3CCN(C(C)(C)CF)CC3)nc(Sc3ccc4nc(CC(F)(F)F)n(C)c4c3)n2)[nH]n1 [Compound I-7] | < 50 nM | 
